Earlier results, collected in patent US7485427B1, “Photocleavable bioreactive agents” (The Trustees of Boston University, priority 1994, dated 2009).

Molecular target: avidin (Gallus gallus, UniProt P02701)
Settings: binding between avidin and biotin

avidin, sequence (P02701 25-152): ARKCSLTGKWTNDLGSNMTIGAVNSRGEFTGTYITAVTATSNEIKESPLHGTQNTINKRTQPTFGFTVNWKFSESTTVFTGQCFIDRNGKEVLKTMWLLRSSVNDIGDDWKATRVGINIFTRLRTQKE

## O=C(O)CCCC[C@@H]1SC[C@@H]2NC(=O)N[C@@H]21 [biotin]
  association constant (Ka): about 10^15 M^−1
